Where two headings read alike, the source gives them in different places.
Legend:
IL-1Ra = IL-1Ra production by LPS-stimulated PBMCs (multiplex); type: cell-based, human; details: 1×10^−4M anti-oxidant 2 hrs, then LPS 18 hrs
Excerpt: (§1) Cell Culture—PBMCs were isolated from buffy coats derived from healthy donors (Sylvan N. Goldman Oklahoma Blood Institute, Oklahoma City, Okla., USA) by density gradient centrifugation (Ficoll-Paque plus; GE Healthcare, Piscataway, N.J., USA). Oleuropein (purity=80.17%) was purchased from Sabinsa Corporation (Payson, Utah, USA). Silymarin (purity≥95%), ferulic acid (purity≥98%), hesperetin (purity≥95%), resveratrol (purity≥99%), and phloretin (purity≥99%) were purchased from Sigma-Aldrich (St Louis, Mo., USA). Dimethyl sulfoxide (DMSO) (purity=99.90%) was purchased from EMD Millipore (Billerica, Mass., USA). […]
(§2) PBMCs were seeded at either 4×10^5 or 1.2×10^6 cells in 96- or 48-well tissue culture plates (BD Biosciences, Franklin Lakes, N.J., USA) respectively. […] After 2 hrs the absorbance at 490 nm was recorded using a 96-well plate reader.
(§3) Human Cytokine Fluorokine MAP kit was purchased from R & D Systems (Minneapolis, Minn., USA). Readouts included TNF-α, IL-1α, IL-1β, IL-1Ra, IL-2, IL-4, IL-5, IL-6, IL-8, IL-10, IL-17, macrophage inflammatory protein (MIP)-1α (MIP-1α), MIP-1β, interferon-γ (IFN-γ), granulocyte-colony stimulating factor (G-CSF), granulocyte macrophage-colony stimulating factor (GM-CSF), macrophage chemotactic protein (MCP-1), CCL5, CXCL5, vascular endothelial growth factor (VEGF), thrombopoietin (TPO) and fibroblast growth factor basic (FGFb). […]

G-CSF = G-CSF production by LPS-stimulated PBMCs (multiplex); type: cell-based, human; details: 1×10^−4M anti-oxidant 2 hrs, then LPS 18 hrs
Excerpt: Cell Culture—PBMCs were isolated from buffy coats derived from healthy donors (Sylvan N. Goldman Oklahoma Blood Institute, Oklahoma City, Okla., USA) by density gradient centrifugation (Ficoll-Paque plus; GE Healthcare, Piscataway, N.J., USA). Oleuropein (purity=80.17%) was purchased from Sabinsa Corporation (Payson, Utah, USA). […] Dimethyl sulfoxide (DMSO) (purity=99.90%) was purchased from EMD Millipore (Billerica, Mass., USA). Oleuropein, silymarin, ferulic acid, hesperetin, resveratrol and phloretin were provided as 0.1M stock solutions prepared in DMSO by Periosciences Ltd (Dallas, Tex., USA).
PBMCs were seeded at either 4×10^5 or 1.2×10^6 cells in 96- or 48-well tissue culture plates (BD Biosciences, Franklin Lakes, N.J., USA) respectively. PBMCs were pre-treated with single antioxidants at a concentration of 1×10^−4 M or combinations of antioxidants with a combined concentration of 1×10^−4 M for 2 hrs prior to stimulation. PBMCs were then stimulated for 16 hrs with purified LPS isolated from the bacterium Actinobacillus actinomycetemcomitans, strain Y4 (Aa Y4); a kind gift of Dr Kirkwood, Univ. S.C.) at a concentration of 1 μg/ml in the presence of antioxidants. Media were collected, spun at 1600 RPM and cell-free supernatants transferred to fresh tubes and stored at −20 C. Cell viability was assayed using CellTiter 96® AQueous One Solution Reagent (Promega, Madison, Wis., USA) following the manufacturers guidelines. […] After 2 hrs the absorbance at 490 nm was recorded using a 96-well plate reader.

TNF-α = TNF-α production by Aa Y4 LPS-stimulated PBMCs (ELISA); type: cell-based, human; details: PBMCs pre-treated 2 hrs with 1×10^−4M anti-oxidant, then LPS 18 hrs
Excerpt: (§4) Cell Culture—PBMCs were isolated from buffy coats derived from healthy donors (Sylvan N. Goldman Oklahoma Blood Institute, Oklahoma City, Okla., USA) by density gradient centrifugation (Ficoll-Paque plus; GE Healthcare, Piscataway, N.J., USA). Oleuropein (purity=80.17%) was purchased from Sabinsa Corporation (Payson, Utah, USA). Silymarin (purity≥95%), ferulic acid (purity≥98%), hesperetin (purity≥95%), resveratrol (purity≥99%), and phloretin (purity≥99%) were purchased from Sigma-Aldrich (St Louis, Mo., USA). Dimethyl sulfoxide (DMSO) (purity=99.90%) was purchased from EMD Millipore (Billerica, Mass., USA). Oleuropein, silymarin, ferulic acid, hesperetin, resveratrol and phloretin were provided as 0.1M stock solutions prepared in DMSO by Periosciences Ltd (Dallas, Tex., USA).
PBMCs were seeded at either 4×10^5 or 1.2×10^6 cells in 96- or 48-well tissue culture plates (BD Biosciences, Franklin Lakes, N.J., USA) respectively. PBMCs were pre-treated with single antioxidants at a concentration of 1×10^−4 M or combinations of antioxidants with a combined concentration of 1×10^−4 M for 2 hrs prior to stimulation. […] S.C.) at a concentration of 1 μg/ml in the presence of antioxidants. Media were collected, spun at 1600 RPM and cell-free supernatants transferred to fresh tubes and stored at −20 C. Cell viability was assayed using CellTiter 96® AQueous One Solution Reagent (Promega, Madison, Wis., USA) following the manufacturers guidelines. 20 μl of the reagent was added to each well and incubated for 2 hrs under culture conditions. After 2 hrs the absorbance at 490 nm was recorded using a 96-well plate reader.
ELISA and Multiplex Assays—Human tumour necrosis factor-alpha (TNF-α) capture and detection Abs were purchased from Life Technologies (Carlsbad, Calif., USA) and used for the development of a TNF-α sandwich ELISA according to the manufacturer's instructions. Cell culture supernatants were analyzed using a 96-well plate reader with absorbance at 450 nm (reference 650 nm).
Stimulation of PBMCs with Aa Y4 LPS—To establish the optimal concentrations of anti-oxidants and LPS for this study, dose and kinetic experiments were performed. The doses examined were: 1×10^−4, 1×10^−5 and 1×10^−6M while the challenge concentrations of Aa Y4 LPS were 1, 10, 100 or 1000 ng/ml. Whole blood was stimulated with several concentrations of E. coli or Aa Y4 LPS and TNF-α production quantified by ELISA over 3 time-points: 16, 24 and 48 hrs.

IL-10 = IL-10 production by LPS-stimulated PBMCs (multiplex); type: cell-based, human; details: 1×10^−4M anti-oxidant 2 hrs, then LPS 18 hrs
Excerpt: as §1, §2, §3

IL-1α = IL-1α production by LPS-stimulated PBMCs (multiplex); type: cell-based, human; details: 1×10^−4M anti-oxidant 2 hrs, then LPS 18 hrs
Excerpt: as §4
(§5) PBMCs were seeded at either 4×10^5 or 1.2×10^6 cells in 96- or 48-well tissue culture plates (BD Biosciences, Franklin Lakes, N.J., USA) respectively. PBMCs were pre-treated with single antioxidants at a concentration of 1×10^−4 M or combinations of antioxidants with a combined concentration of 1×10^−4 M for 2 hrs prior to stimulation. PBMCs were then stimulated for 16 hrs with purified LPS isolated from the bacterium Actinobacillus actinomycetemcomitans, strain Y4 (Aa Y4); a kind gift of Dr Kirkwood, Univ. S.C.) at a concentration of 1 μg/ml in the presence of antioxidants. Media were collected, spun at 1600 RPM and cell-free supernatants transferred to fresh tubes and stored at −20 C. […] After 2 hrs the absorbance at 490 nm was recorded using a 96-well plate reader.
as §3

IL-6 = IL-6 production by LPS-stimulated PBMCs (multiplex); type: cell-based, human; details: 1×10^−4M anti-oxidant 2 hrs, then LPS 18 hrs
Excerpt: as §4, §5, §3

IFN-γ = IFN-γ production by LPS-stimulated PBMCs (multiplex); type: cell-based, human; details: 1×10^−4M anti-oxidant 2 hrs, then LPS 18 hrs
Excerpt: as §4, §5, §3

[1] = system: fibroblasts from human gingival (HGF) and human periodontal ligament (HPDF) cells
Protocol: A study was done to determine the antioxidant effect on fibroblasts from human gingival (HGF) and human periodontal ligament (HPDF) cells exposed to increasing concentration of cytotoxic metals. HGF and HPDF cells were extracted and seeded with 10% fetal bovine serum (FBS). Both the HGF and HPDF cells were then exposed to one of 3×10^−4M or 2×10^−4M ZnCl2, 2×10^−3M or 1×10^−3M NiCl2, 5×10^−4M or 4×10^−4M CuCl2. Next, the samples were treated with bioactive antioxidant (AO) mixtures at single, double, and triple combinations; resveratrol (R), ferulic acid (F), phloretin (P), and tetrahydrocurcuminoids (T). Both the HGF and HPDF cells were then monitored by MTS, ROS, and BrdU assays.

[2] = system: Oral fibroblasts obtained from human gingival (HGF) tissues; assay: MTS cell viability assay of HGF cells pre-treated with Zn, Cu and Ni, then AO mixtures
Protocol: (§6) In dentistry, the use of metals in fillings, braces, bridges and other prosthodontic restorations may form free radicals. […] A study was conducted to determine if oral fibroblasts are susceptible to damage from these agents which elevate reaction oxygen species (ROS). In this study, specific antioxidant (AO) combinations were investigated that counteract the effects of Zn, Cu and Ni on cultured oral fibroblast proliferation and oxidative damage. Oral fibroblasts obtained from human gingival (HGF) tissues were seeded into 96-well plates. After achieving 70% confluence, the cells were pre-treated with Zn, Cu and Ni for 30 and 60 minutes. Thereafter, cells were exposed to 10^-5M of the bioactive AO mixtures; resveratrol (R), ferulic acid (F) phloretin (P) and tetrahydrocurcuminoids (T); (RFT, PFR, PFT) for 24 hours. Cell viability was monitored by MTS assay. The fluorescence response of dichlorodihydrofluorescein diacetate to various ROS was measured.
(§7) A study was conducted to determine if oral fibroblasts are susceptible to damage from these agents by decreasing cell viability and whether specific antioxidants (AO) in combinations can counteract these effects. Oral fibroblasts obtained from human gingival (HGF) tissues were seeded into 96-well plates. After achieving 70% confluence, the cells were pre-treated with Zn, Cu and Ni for 30 and 60 minutes. Thereafter, cells were exposed to 10^-5M of the bioactive AO mixtures at single, double and triple combinations; resveratrol (R), ferulic acid (F), phloretin (P), and tetrahydrocurcuminoids (T) for 24 hours. Cell viability was monitored by MTS assay.

[3] = system: Oral fibroblasts obtained from human gingival (HGF) tissues
Protocol: as §6, §7

IL-1β = IL-1β production by LPS-stimulated PBMCs (multiplex, FIG. 9D); type: cell-based, human; details: 1×10^−4M anti-oxidant 2 hrs, then LPS 18 hrs
Excerpt: as §1, §2, §3

TNF-α mRNA = assay: RT-PCR of TNF-α mRNA in LPS-stimulated PBMCs; type: cell-based, human; details: harvested after 4 hrs, 2-ΔΔCt, GAPDH control
Protocol: (§8) RT-PCR Assays—Total RNA was extracted from homogenized cells using the miRNeasy kit (Qiagen, Valencia, Calif., USA) according to the manufacturer's protocol. Total RNA quantified on Nanodrop (ThermoScientific, Rockford, Ill., USA) was used for first strand cDNA synthesis using the SS RTIII kit (Life Technologies, Carlsbad, Calif., USA). Real-time PCR was performed using EvaGreen 2× master mix (Biotium, Hayward, Calif., USA), 10 pmol forward and reverse gene specific primers and 1 ul of 1:10 diluted cDNA. GAPDH was used as endogenous control. The fold change was calculated using 2-ΔΔCt method and the control was set at 1. Custom primers were purchased from Sigma-Aldrich (St Louis, Mo., USA). Primer sequences for TNF-α were: Forward, […], Reverse: […]. Primer sequences for IκB-α were: Forward, […], Reverse: […]. Data Analysis—Statistics were performed using two-tailed t-test or one-way analysis of variance (ANOVA). Statistical significance is indicated by an asterisk *, where p≤0.05. Error bars on all graphs indicate standard error of mean (SEM) or standard deviation (SD).
(§9) Inhibition of TNF-α is present at the level of mRNA transcription—Whether the reduced production of inflammatory mediators was due to decreased mRNA transcription was investigated. […] After 4 hrs the cells were harvested, total RNA isolated and RT-PCR performed to measure the levels of TNF-α mRNA present. […]

CCL5 = CCL5 production by LPS-stimulated PBMCs (multiplex); type: cell-based, human; details: 1×10^−4M anti-oxidant 2 hrs, then LPS 18 hrs
Excerpt: as §1, §2, §3

IκB-α mRNA = assay: RT-PCR of IκB-α mRNA in LPS-stimulated PBMCs (NF-κB activation); type: cell-based, human
Protocol: as §8, §9

[4] = HGF and HPDF, Example 4 metal concentrations

## O=C(CCc1ccc(O)cc1)c1c(O)cc(O)cc1O [phloretin]
IL-1Ra
  production of IL-1Ra: inhibited the production
G-CSF
  G-CSF production: inhibited
TNF-α
  TNF-α production: Significant inhibition
IL-10
  production of IL-10: inhibited the production
IL-1α
  production of IL-1α: inhibited the production
IL-6
  production of IL-6: inhibited the production
IFN-γ
  IFN-γ induced by LPS stimulation: abolished

## [Cl][Ni][Cl] [Ni, NiCl2]
[1]; [4]
  effect of metal on ROS: little effect on ROS
[2]; HGF cells, 30 and 60 minutes
  viable cells after incubation with metal (MTS): dose-dependent decrease of viable cells
[3]; HGF cells
  effect of metal on ROS: increased ROS

## [Cl][Cu][Cl] [Cu, CuCl2]
[1]
  effect of metal on ROS: increased ROS
[2]
  viable cells after incubation with metal (MTS): dose-dependent decrease of viable cells
[3]
  effect of metal on ROS: increased ROS

## COc1ccc([C@@H]2CC(=O)c3c(O)cc(O)cc3O2)cc1O [hesperetin]
G-CSF
  G-CSF production: inhibited
IL-1β
  levels of IL-1β: decreased levels
TNF-α
  TNF-α production: Significant inhibition
IL-1α
  production of IL-1α: inhibited the production
IL-6
  production of IL-6: inhibited the production
IFN-γ
  IFN-γ induced by LPS stimulation: abolished

## COc1cc(/C=C/C(=O)O)ccc1O [ferulic acid]
TNF-α mRNA
  reduction of TNF-α mRNA expression levels: not
TNF-α
  TNF-α production: no observed effect
CCL5
  production of CCL5: Apart from ferulic acid

## [Cl-].[Cl-].[Zn+2] [Zn, ZnCl2]
[1]; [4]
  effect of metal on ROS: little effect on ROS
[2]; HGF cells, 30 and 60 minutes
  viable cells after incubation with metal (MTS): dose-dependent decrease of viable cells
[3]; HGF cells
  effect of metal on ROS: increased ROS

## Oc1ccc(C=Cc2cc(O)cc(O)c2)cc1 [resveratrol]
IL-1Ra
  production of IL-1Ra: inhibited the production
G-CSF
  G-CSF production: inhibited
IL-1β
  levels of IL-1β: decreased levels
TNF-α
  TNF-α production: Significant inhibition
IL-10
  production of IL-10: inhibited the production
IL-1α
  production of IL-1α: inhibited the production
IL-6
  production of IL-6: inhibited the production
IκB-α mRNA
  reduction of IκB-α mRNA expression: ~50%
IFN-γ
  IFN-γ induced by LPS stimulation: abolished
